Test results as given in patent publication US20240109855A1, “ANTI-QUORUM SENSING, ANTI-BIOFILM, AND INFLAMMATION ATTENUATING COMPOUNDS, COMPOSITIONS, AND METHODS OF USING SAME” (priority 2021, published 2024).
Entries after “also recorded” stand apart in the source; their conditions may differ.

Experiments:
NF-kB = assay: NF-kB-luciferase reporter gene assay in L428 cells; assay type: cell-based, human; details: Table 6 summary; also: key: +: active; −: inactive
Procedure: FIG. 7 includes a vertical bar graph showing a dose response of NF-kB activation according to an NF-kB reporter gene luciferase assay. L428 cells were stably transfected with the NF-kB luciferase reporter gene. The cells were incubated with the compounds at different concentrations for 2 hours. […] The results represent the percentage of NF-kB activation as compared to vehicle (DMSO) treated cells. All samples were normalized to protein concentration. Mean+SD, Two-way ANOVA and Tukey's multiple comparison test. 95% confidence interval (p-values *≤0.0332, **≤0.0021, ***≤0.0002).
L428 cells stable transfectants with the luciferase NF-kB-Luc reporter gene were generated previously described (Ozer et al., 2009), and were maintained in 500 μg/ml of G418 (G418 disulfate salt, Sigma-Aldrich). The cells (5×10^5 /well in triplicate) were incubated for 2 hrs. in 1 ml of medium containing the solvent (DMSO) or different concentrations of the molecules tested. Cells were then harvested, lysed, and monitored by a luciferase reporter assay kit (Promega) according to the manufacturer's instructions. Measurements were carried out using a luminometer (Promega, GLOMAX™ 20/20 Luminometer). Data were normalized to the protein concentration in each lysate as measured by the Bradford method (BioRad) and normalized to the control. Experiments were repeated at least three times.

[1] = system: quorum sensing (CV026 and KYC55); assay: Quorum sensing inhibition, overall statement over the bio-reporter bacteria; assay type: cell-based
Procedure: TLC preparation: all derivatives were dissolved in 100% acetonitrile to a concentration of 40 mM. Then placed 20 μlon the same spot on the TLC and let the solvent evaporate before use. CV026: few colonies were transferred to liquid LB (Lenox) for overnight incubation at 30° C. in a 45 degree in orbital shaker. At the O.D. 0.8 3 ml of the starter was added to preheated soft LB agar containing 500 nM of 3-oxo-C6 (Sigma-Aldrich). The mixture was then loaded on the TLC in a glass plate for O.N. incubation in 30° C. The next day inhibition zone was measured, while QS is taking place bacteria produce purple pigment, and when QS is inhibited no pigment is produced. KYC55 (pJZ372) (pJZ384) (pJZ410): 20 μl from the frozen stock into 25 ml AT media (AT buffer×20: 1.57 M KH2PO4 pH=7.3. AT salts mix×20: 300 mM (NH4)2SO4, 13 mM MgSO4, 1.4 mM CaCl2, 0.4 mM FeSO4·7H2O, 0.26 mM MnSO4·H2O. AT media: 50 ml×20 AT-buffer, 50 ml×20 AT-salts, 10 ml 50% (w/v) glucose, add 890 ml to final volume of 1 liter.) For O.N. at 30° C. in an orbital shaker. Into preheated water agar with 25 ml AT-buffer, and 60 μg/ml X-gal and 5 nM 3-oxo-c8 (both from Sigma-Aldrich) 25 ml of the starter was added. Then, that mixture was loaded on the TLC in glass plate for O.N. incubation in 30° C. The next day the inhibition zone was measured. The bacteria produce blue pigment during QS and when QS is inhibited no pigment is produced. KYC55 (pJZ372) (pJZ384) (pJZ410) preservation in tetracycline (1 μg/ml), spectinomycin (100 μg/ml), gentamicin (100 μg/ml) (all antibiotics from Sigma Aldrich) in AT media O.N. then centrifuged and suspend in 15% glycerol frozen and maintained at −80° C.
All the synthesized compounds were evaluated for quorum sensing inhibition against two bioreporter bacteria strains, Chromobacterium violaceum (CV026) and Agrobacterium tumefaciens (KYC55) and the results are summarized in Table 1.

Streptococcus mutans = assay: Diffusion discs test, Streptococcus mutans; assay type: cell-based; set-up: key: —: no activity; details: discs with 40 mM of compound in 20 μl solvent
Procedure: (§1) All derivatives were dissolved in acetonitrile to a final concentration of 40 mM. Twenty (20) μl were loaded onto Whatman filter paper discs and dried. Bacillus subtilis, Staphylococcus aureus, and Acinetobacter baumannii were grown in LB (Lenox) O.N. One hundred (100) μl from the starter culture was plated on LB agar (Miller) dishes. Streptococcus sobrinus, and Streptococcus mutans grown in Brain Heary Infusion (BHI, Himedia) O.N. were similarly plated on BHI agar dishes. Discs were laid and incubated O.N. in 37° C. and the diameter of inhibition of bacterial growth was measured.

in vitro = details: human, LC50
Procedure: (§2) The human Hodgkin's Lymphoma derived L428 cell line was used as a model. The cells were grown in RPMI Medium 1640 with 10% FBS, 1% Glutamine and pen-strep (all from Biological Industries, Israel). […] Thirty thousand (30,000) cells/well were placed in 96-well plates with the coumaperine derivatives at different concentrations or with vehicle (DMSO) at a final volume of 200 μl. The plates were incubated for 48 hrs. at 37° C. and 5% CO2 followed by the addition of 50 μl of the XTT reagent tetrazolium-formazan, (Biological Industries, Israel) was added for 2 hrs. at 37° C., 5% CO2. In living cells, mitochondria […] the tetrazolium-formazan salt, thereby generating a color absorbing product at 450 nm. Absorbance was measured at 450 nm and 650 nm in an enzyme-linked immunosorbent assay (ELISA) plate reader (Multiskan Spectrum, Version 1.2), and recorded. Absorption values at 650 nm were subtracted from the blank and the 450 nm values. The results were normalized to the control (treated with DMSO).
(§3) Viability was determined in triplicate in two independent tests. The results were normalized to vehicle (DMSO) treated cells, (100% viability). Mean+SD.

L428 cells [2] = assay: in vitro
Procedure: as §2, §3

Bacillus subtilis = assay: Diffusion discs test, Bacillus subtilis; assay type: cell-based; details: discs with 40 mM of compound in 20 μl solvent
Procedure: as §1

Streptococcus sobrinus = assay: Diffusion discs test, Streptococcus sobrinus; assay type: cell-based; details: discs with 40 mM of compound in 20 μl solvent
Procedure: as §1

[3] = system: Chromobacterium violaceum (CV026); assay: Quorum sensing inhibition test with bio-reporter CV026 (TLC overlay); assay type: cell-based; as to Degree of QSI of CV026: key: −: no inhibition; +: low inhibition; ++: medium inhibition; +++: strong inhibition
How it was run: (§4)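 Compounds (40 mM in acetonitrile, 20 μl) were spotted on TLC and overlaid with soft agar reporter cultures, incubated overnight at 30 °C. CV026 was in LB with 500 nM 3-oxo-C6 (purple pigment), and KYC55 was in AT medium with 5 nM 3-oxo-C8 and 60 μg/ml X-gal (blue). Inhibition zone diameter was measured.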

Acinetobacter baumannii = assay: Diffusion discs test, Acinetobacter baumannii; assay type: cell-based; set-up: key: —: no activity; details: discs with 40 mM of compound in 20 μl solvent
Procedure: as §1

[4] = system: Agrobacterium tumefaciens (KYC55); assay: Quorum sensing inhibition test with bio-reporter KYC55 (TLC overlay); assay type: cell-based; as to Degree of QSI of KYC55: key: −: no inhibition; +: low inhibition; ++: medium inhibition; +++: strong inhibition
How it was run: as §4

L428 cells [5] = details: cited from earlier work
Staphylococcus aureus = assay: Diffusion discs test, Staphylococcus aureus; assay type: cell-based; details: discs with 40 mM of compound in 20 μl solvent
Procedure: as §1

[6] = system: gram-positive and gram-negative bacteria; assay: Antibacterial activity, overall statement (diffusion discs test); assay type: cell-based
Procedure: as §1
The antibacterial activities of derivatives showing QSI are outlined in Table 4. […] Similar to that idea, synthetic derivatives of furanon (product of marine algae) shown in-vivo QSI activity without antibacterial activity followed by immune response of the infected animal. Phenolic compounds decrease QS and virulence in PA01 and Chromobacterium violaceum. There is increasing number of studies, searching for compounds that targeting non-vital processes to combat bacteria.

PA01 = assay: Diffusion discs test, PA01; assay type: cell-based, P. aeruginosa; set-up: key: —: no activity; details: discs with 40 mM of compound in 20 μl solvent
[7] = Table 1, coumaperine derivatives, 40 mM in ~20 μL acetonitrile dried on TLC plate, overnight, color intensity

O=C(/C=C/C=C/c1ccccc1)N1CCCCC1 [CP-9, (2E,4E)-5-phenyl-1-(piperidin-1-yl)penta-2,4-dien-1-one]
Anti-inflammatory (NF-kB): + | QSI ([1]; Table 6 summary): + | QSI activity overall, in words ([1]; running text): anti QS activity | Streptococcus mutans, diameter of growth inhibition (Streptococcus mutans): — | CC50 at 48 h (in vitro): 24.7 µM | Cytotoxic (L428 cells [2]): + | CC50 (L428 cells [2]; human, 48 h): 24.7 µM | Bacillus subtilis, diameter of growth inhibition (Bacillus subtilis): 8 mm | Streptococcus sobrinus, diameter of growth inhibition (Streptococcus sobrinus): 9 mm | Degree of QSI of CV026 [3, 7]: ++ | QSI activity against CV026, in words ([3]; running text): moderate | Acinetobacter baumannii, diameter of growth inhibition (Acinetobacter baumannii): — | Degree of QSI of KYC55 [4, 7]: + | QSI activity against KYC55, in words ([4]; running text): low | Cytotoxicity, previously reported (L428 cells [5]): cytotoxic | Staphylococcus aureus, diameter of growth inhibition (Staphylococcus aureus): 9 mm | Antibacterial ([6]; Table 6 summary): + | Antibacterial activity, in words ([6]; running text): showed antibacterial activity; also recorded: inhibit bacterial growth of the three gram-positive bacteria; also recorded: some antibiotic activity | PA01, diameter of growth inhibition (PA01): —
